Where a name gives a salt, the structure may show the parent alone.
What was measured:
[1] = molecular target: cloned human P2Y1 receptors (Homo sapiens (Human), UniProt P47900); test: Binding Assay B - Scintillation Proximity Assay (SPA) for P2Y1 binding, [33P] 2MeS-ADP; conditions: SPA, 0.3 nM [33P] 2MeS-ADP, Cheng-Prusoff; read-out: P2Y1 Ki (nM) using binding assay B
Description: Binding Assay B—Scintillation Proximity Assay (SPA) for P2Y1 Binding
A SPA membrane binding assay was used to identify inhibitors of [^33P] […] Reactions were allowed to proceed to completion at room temperature for 1 hour followed by centrifugation of the plate for 5 min. About 40 μL of the aqueous solution was aspirated. Plates were sealed and the [^33P]

[2] = test system: human platelet rich plasma (PRP); test: ADP induced platelet aggregation assay; conditions: Homo sapiens, Platelet, 5 min, read-out: PA IC50 (μM) @ 10 μM ADP, human PRP, 10 μM ADP, AUC at 5 minute

Chain of cloned human P2Y1 receptors (P47900 whole entry): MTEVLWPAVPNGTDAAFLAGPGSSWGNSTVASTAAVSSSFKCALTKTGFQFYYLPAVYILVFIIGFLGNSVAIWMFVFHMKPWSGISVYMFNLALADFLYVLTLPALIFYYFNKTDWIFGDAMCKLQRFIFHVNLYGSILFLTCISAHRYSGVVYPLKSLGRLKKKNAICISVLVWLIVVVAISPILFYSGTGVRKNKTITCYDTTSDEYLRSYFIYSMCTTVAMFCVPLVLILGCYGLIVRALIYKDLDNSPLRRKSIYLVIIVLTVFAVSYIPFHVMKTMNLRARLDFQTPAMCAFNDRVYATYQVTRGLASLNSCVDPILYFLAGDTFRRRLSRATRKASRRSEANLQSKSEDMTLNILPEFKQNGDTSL

| SMILES | Ki [1] | IC50 [2] |
| --- | --- | --- |
| Cc1noc(-c2ccc(O)c3c2C(C)(C)CN3c2ccccc2NC(=O)Nc2ccc(OC(F)(F)F)cc2)n1 [Example 97, 1-(2-(7-Hydroxy-3,3-dimethyl-4-(3-methyl-1,2,4-oxadiazol-5-yl)indolin-1-yl)phenyl)-3-(4-(trifluoromethoxy)phenyl)urea] | 20.7 nM | 1.52 µM |
| CC1(C)CN(c2ccccc2NC(=O)Nc2ccc(OC(F)(F)F)cc2)c2c(O)ccc(-c3nc4cc(F)c(F)cc4o3)c21 [Example 99, 1-(2-(4-(5,6-Difluorobenzo[d]oxazol-2-yl)-7-hydroxy-3,3-dimethylindolin-1-yl)phenyl)-3-(4-(trifluoromethoxy)phenyl)urea] | 28.1 nM | 0.89 µM |
| CC1(C)CN(c2ccccc2NC(=O)Nc2nc3ccc(F)cc3s2)c2c(O)ccc(-c3nc4cc(Cl)ccc4s3)c21 [Example 100, 1-(2-(4-(5-Chlorobenzo[d]thiazol-2-yl)-7-hydroxy-3,3-dimethylindolin-1-yl)phenyl)-3-(6-fluorobenzo[d]thiazol-2-yl)urea] | 38.4 nM | 0.27 µM |
| CC1(C)CN(c2ccccc2NC(=O)Nc2nc3ccc(F)cc3s2)c2c(O)ccc(-c3nc4ccc(F)cc4o3)c21 [Example 101, 1-(2-(4-(6-Fluorobenzo[d]oxazol-2-yl)-7-hydroxy-3,3-dimethylindolin-1-yl)phenyl)-3-(6-fluorobenzo[d]thiazol-2-yl)urea] | 31.9 nM | 0.67 µM |
| Cc1cnc2oc(-c3ccc(O)c4c3C(C)(C)CN4c3ccccc3NC(=O)Nc3ccc(OC(F)(F)F)cc3)nc2c1 [Example 102, 1-(2-(7-Hydroxy-3,3-dimethyl-4-(6-methyloxazolo[5,4-b]pyridin-2-yl)indolin-1-yl)phenyl)-3-(4-(trifluoromethoxy)phenyl)urea] | 11.2 nM | 0.97 µM |
| Cc1ccnc2oc(-c3ccc(O)c4c3C(C)(C)CN4c3ccccc3NC(=O)Nc3ccc(OC(F)(F)F)cc3)nc12 [Example 103, 1-(2-(7-Hydroxy-3,3-dimethyl-4-(7-methyloxazolo[5,4-b]pyridin-2-yl)indolin-1-yl)phenyl)-3-(4-(trifluoromethoxy)phenyl)urea] | 11.1 nM | 1.03 µM |
| CC1(C)CN(c2ccccc2NC(=O)Nc2ccc(OC(F)(F)F)cc2)c2c(O)ccc(C3=NC(C(C)(C)C)CO3)c21 (stereo not shown) [Example 104, 1-(2-(4-(4-tert-Butyl-4,5-dihydrooxazol-2-yl)-7-hydroxy-3,3-dimethylindolin-1-yl)phenyl)-3-(4-(trifluoromethoxy)phenyl)urea] | 9.1 nM | 0.46 µM |
| CC1(C)CN(c2ccccc2NC(=O)Nc2ccc(OC(F)(F)F)cc2)c2c(O)ccc(C3=NCC(C(F)(F)F)O3)c21 (stereo not shown) [Example 105, 1-(2-(7-Hydroxy-3,3-dimethyl-4-(5-(trifluoromethyl)-4,5-dihydrooxazol-2-yl)indolin-1-yl)phenyl)-3-(4-(trifluoromethoxy)phenyl)urea] | 8.8 nM | 1.57 µM |
| CC1(C)CN(c2ccccc2NC(=O)Nc2ccc(OC(F)(F)F)cc2)c2c(O)ccc(-c3nc4c(CO)cccc4o3)c21 [Example 106, 1-(2-(7-Hydroxy-4-(4-(hydroxymethyl)benzo[d]oxazol-2-yl)-3,3-dimethylindolin-1-yl)phenyl)-3-(4-(trifluoromethoxy)phenyl) urea] | 364 nM | 3.28 µM |
| CNc1ncnc2oc(-c3ccc(O)c4c3C(C)(C)CN4c3ccccc3NC(=O)Nc3ccc(OC(F)(F)F)cc3)nc12 [Example 107, 1-(2-(7-Hydroxy-3,3-dimethyl-4-(7-(methylamino)oxazolo[5,4-d]pyrimidin-2-yl)indolin-1-yl)phenyl)-3-(4-(trifluoromethoxy)phenyl)urea] | 24 nM | 3.85 µM |
| CC1(C)CN(c2ccccc2NC(=O)Nc2nc3ccc(F)nc3s2)c2c(O)ccc(-c3nc4ccc(Cl)cc4o3)c21 [Example 108, 1-(2-(4-(6-Chlorobenzo[d]oxazol-2-yl)-7-hydroxy-3,3-dimethylindolin-1-yl)phenyl)-3-(5-fluorothiazolo[5,4-b]pyridin-2-yl)urea] | 9.7 nM | 0.19 µM |
| CC(C)(C)CN1CCCC1c1ccc(NC(=O)Nc2ccccc2N2CC(C)(C)c3c(-c4nc5ccc(Cl)cc5o4)ccc(O)c32)cc1 (stereo not shown) [Example 109, 1-(2-(4-(6-Chlorobenzo[d]oxazol-2-yl)-7-hydroxy-3,3-dimethylindolin-1-yl)phenyl)-3-(4-(1-neopentylpyrrolidin-2-yl)phenyl)urea] | 22 nM | 0.13 µM |
| COc1ccc2nc(NC(=O)Nc3ccccc3N3CC(C)(C)c4c(-c5nc6ccc(Cl)cc6o5)ccc(O)c43)sc2n1 [Example 110, 1-(2-(4-(6-Chlorobenzo[d]oxazol-2-yl)-7-hydroxy-3,3-dimethylindolin-1-yl)phenyl)-3-(5-methoxythiazolo[5,4-b]pyridin-2-yl)urea] | 15.4 nM | 0.31 µM |
| CC1(C)CN(c2ccccc2NC(=O)Nc2ccc(OC(F)(F)F)cc2)c2c(O)ccc(-c3cc(F)nc(F)c3)c21 [Example 111, 1-(2-(4-(2,6-Difluoropyridin-4-yl)-7-hydroxy-3,3-dimethylindolin-1-yl)phenyl)-3-(4-(trifluoromethoxy)phenyl)urea, TFA] | 7.5 nM | 0.14 µM |
| CC1(C)CN(c2ccccc2NC(=O)Nc2ccc(OC(F)(F)F)cc2)c2c(O)ccc(-c3ccnc(F)c3)c21 [Example 112, 1-(2-(4-(2-Fluoropyridin-4-yl)-7-hydroxy-3,3-dimethylindolin-1-yl)phenyl)-3-(4-(trifluoromethoxy)phenyl) urea] | 9 nM | 0.43 µM |
| CC1(C)CN(c2ccccc2NC(=O)Nc2ccc(OC(F)(F)F)cc2)c2c(O)ccc(-c3ccncc3)c21 [Example 113, 1-(2-(7-Hydroxy-3,3-dimethyl-4-(pyridin-4-yl)indolin-1-yl)phenyl)-3-(4-(trifluoromethoxy)phenyl)urea] | 5.9 nM | 0.35 µM |
| CC1(C)CN(c2ccccc2NC(=O)Nc2ccc(OC(F)(F)F)cc2)c2c(O)ccc(-c3ccncc3Cl)c21 [Example 114, 1-(2-(4-(3-Chloropyridin-4-yl)-7-hydroxy-3,3-dimethylindolin-1-yl)phenyl)-3-(4-(trifluoromethoxy)phenyl) urea] | 26.5 nM | 0.53 µM |
| CC1(C)CN(c2ccccc2NC(=O)Nc2ccc(OC(F)(F)F)cc2)c2c(O)ccc(-c3cncc(Cl)c3)c21 [Example 116, 1-(2-(4-(5-Chloropyridin-3-yl)-7-hydroxy-3,3-dimethylindolin-1-yl)phenyl)-3-(4-(trifluoromethoxy)phenyl) urea] | 22.4 nM | 0.5 µM |
| CC1(C)CN(c2ccccc2NC(=O)Nc2ccc(OC(F)(F)F)cc2)c2c(O)ccc(-c3cncc(F)c3)c21 [Example 117, 1-(2-(4-(5-Fluoropyridin-3-yl)-7-hydroxy-3,3-dimethylindolin-1-yl)phenyl)-3-(4-(trifluoromethoxy)phenyl) urea] | 36 nM | 0.51 µM |
| Cc1cc(-c2ccc(O)c3c2C(C)(C)CN3c2ccccc2NC(=O)Nc2ccc(OC(F)(F)F)cc2)cnc1F [Example 119, 1-(2-(4-(6-Fluoro-5-methylpyridin-3-yl)-7-hydroxy-3,3-dimethylindolin-1-yl)phenyl)-3-(4-(trifluoromethoxy)phenyl) urea] | 3.3 nM | 0.47 µM |

Reference: patent US9540323B2 (BRISTOL-MYERS SQUIBB COMPANY, priority 2012, dated 2017)
